Test results: patent EP1203770A1 (priority 1992, dated 1994)
Where two headings read alike, the source gives them in different places.

Target: T1, HIV-1 protease (Human immunodeficiency virus type 1 group M subtype B, UniProt P04585)
T1 construct: The protease (or proteinase), consisting of only 99 amino acids, is among the smallest enzymes known
Experiment: In vitro HIV protease inhibitory assay (HIV Protease FITC Assay)
Assay type: biochemical
In short: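 Biotin/FITC-labelled peptide substrate cleaved by HIV-1 protease for 1 h at room temperature in the dark, in 0.1 M sodium acetate pH 5.5, 1.0 M NaCl, 0.05% NP-40. Uncleaved substrate captured on avidin beads and separated by filtration; fluorescence gave % inhibition.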

[1] = HIV-1 Dose 0.123 uM, read-out: HIV-1 Protease % Inhib
[2] = HIV-1 Dose 0.370 uM, read-out: HIV-1 Protease % Inhib
[3] = HIV-1 Dose 1.100 uM, read-out: HIV-1 Protease % Inhib
[4] = HIV-1 Dose 3.300 uM, read-out: HIV-1 Protease % Inhib
[5] = HIV-1 Dose 10.000 uM, read-out: HIV-1 Protease % Inhib
[6] = HIV-1 Dose 30.000 uM, read-out: HIV-1 Protease % Inhib
[7] = read-out: HIV-1 Protease % Inhib

SMILES	inhibition at 0.123 µM [1] [%]	inhibition at 0.37 µM [2] [%]	inhibition at 1.1 µM [3] [%]	inhibition at 3.3 µM [4] [%]	inhibition at 10 µM [5] [%]	inhibition at 30 µM [6] [%]	Ki (read-out: HIV-1 FITC Ki) [nM]	inhibition at 100 µM (HIV-1 Dose 100.000 uM, read-out: HIV-1 Protease % Inhib) [%]	inhibition at 0.123 µM [7] [%]	inhibition at 0.37 µM [7] [%]	inhibition at 1.1 µM [7] [%]	inhibition at 3.3 µM [7] [%]	inhibition at 10 µM [7] [%]	inhibition at 30 µM [7] [%]	Ki [nM]
CCC(Cc1cccc(Br)c1)c1cc(O)c(C(c2ccccc2)C2CC2)c(=O)o1 (stereo not drawn) [Example 159, 3-(α-cyclopropylbenzyl)-4-hydroxy-6-(α-ethyl-m-bromophenethyl)-2H-pyran-2-one]	< 10	20.6	56.4	76.2	92.3	95.1	207	–	–	–	–	–	–	–	–
CCC(Cc1ccc(C(F)(F)F)cc1)c1cc(O)c(C(c2ccccc2)C2CC2)c(=O)o1 (stereo not drawn) [Example 160, 3-(α-cyclopropylbenzyl)-4-hydroxy-6-(α-ethyl-p-triflurormethylphenethyl)-2H-pyran-2-one]	< 10	12.2	39.4	78.2	89.7	92.1	–	–	–	–	–	–	–	–	–
CCC(Cc1cccc(C(F)(F)F)c1)c1cc(O)c(C(c2ccccc2)C2CC2)c(=O)o1 (stereo not drawn) [Example 161, 3-(α-cyclopropylbenzyl)-4-hydroxy-6-(α-ethyl-m-triflurormethylphenethyl)-2H-pyran-2-one]	< 10	< 10	41.8	78	96.5	105	–	–	–	–	–	–	–	–	–
CCC(Cc1ccccc1C(F)(F)F)c1cc(O)c(C(c2ccccc2)C2CC2)c(=O)o1 (stereo not drawn) [Example 162, 3-(α-cyclopropylbenzyl)-4-hydroxy-6-(α-ethyl-o-triflurormethylphenethyl)-2H-pyran-2-one]	< 10	< 10	< 10	34.4	52	72.3	–	–	–	–	–	–	–	–	–
CCC(Cc1ccc(OC)cc1)c1cc(O)c(C(c2ccccc2)C2CC2)c(=O)o1 (stereo not drawn) [Example 163, 3-(α-cyclopropylbenzyl)-4-hydroxy-6-(α-ethyl-p-methoxyphenethyl)-2H-pyran-2-one]	< 10	30.8	65.6	88.7	101	98.4	172	–	–	–	–	–	–	–	–
CCC(Cc1cccc(OC)c1)c1cc(O)c(C(c2ccccc2)C2CC2)c(=O)o1 (stereo not drawn) [Example 164, 3-(α-cyclopropylbenzyl)-4-hydroxy-6-(α-ethyl-m-methoxyphenethyl)-2H-pyran-2-one]	< 10	16.5	50	68.8	84.8	88.2	185	–	–	–	–	–	–	–	–
O=c1oc(CCc2ccc(F)cc2)cc(O)c1C(c1ccccc1)C1CC1 (stereo not drawn) [Example 165, 3-(α-cyclopropylbenzyl)-4-hydroxy-6-(p-fluorophenethyl)-2H-pyran-2-one]	< 10	10.5	32.9	60	80.7	94.1	–	–	–	–	–	–	–	–	–
O=c1oc(CCc2ccc(Cl)cc2)cc(O)c1C(c1ccccc1)C1CC1 (stereo not drawn) [Example 166, 3-(α-cyclopropylbenzyl)-4-hydroxy-6-(p-chlorophenethyl)-2H-pyran-2-one]	< 10	< 10	< 10	39.8	62.3	80.9	–	97.8	–	–	–	–	–	–	–
O=c1oc(CCc2ccc(Br)cc2)cc(O)c1C(c1ccccc1)C1CC1 (stereo not drawn) [Example 167, 3-(α-cyclopropylbenzyl)-4-hydroxy-6-(p-bromophenethyl)-2H-pyran-2-one]	< 10	< 10	18.4	37.1	60.4	81.1	–	–	–	–	–	–	–	–	–
C=CC(C1=C(O)CC(Cc2ccccc2)(c2ccccc2)OC1=O)c1ccccc1 (stereo not shown) [Example 168, 5,6-Dihydro-4-hydroxy-6-phenyl-6-(phenylmethyl)-3-(1-phenyl-2-propenyl)-2H-pyran-2-one]	< 10	< 10	< 10	10.4	43.4	48	–	–	–	–	–	–	–	–	–
CCC(C1=C(O)CC(Cc2ccccc2)(c2ccccc2)OC1=O)c1ccccc1 (stereo not shown) [Example 169, 5,6-Dihydro-4-hydroxy-6-phenyl-6-(phenylmethyl)-3-(1-phenylpropyl)-2H-pyran-2-one]	–	–	–	–	–	–	–	–	< 10	< 10	< 10	< 10	33.2	54.8	–
CCCC1(CCc2ccccc2)CC(O)=C(C(/C=C/c2ccccc2)c2ccccc2)C(=O)O1 (stereo not shown) [Example 170, 3-(1,3-Diphenyl-2-propenyl)-5,6-dihydro-4-hydroxy-6-(2-phenylethyl)-6-propyl-, (E)-2H-pyran-2-one]	–	–	–	–	–	–	50	–	< 10	29.6	62.1	86.7	95.1	93	–
CCCC1(CCc2ccccc2)CC(O)=C(C(CCc2ccccc2)c2ccccc2)C(=O)O1 (stereo not shown) [Example 171, 3-(1,3-Diphenylpropyl)-5,6-dihydro-4-hydroxy-6-(2-phenylethyl)-6-propyl-, 2H-pyran-2-one]	–	–	–	–	–	–	50	–	11.8	39.5	68.9	82.2	96.8	94.6	–
O=C1OC(Cc2ccccc2)(c2ccccc2)CC(O)=C1C(/C=C/c1ccccc1)c1ccccc1 (stereo not shown) [Example 172, 3-(1,3-Diphenyl-2-propenyl)-5,6-dihydro-4-hydroxy-6-phenyl-6-(phenylmethyl)-2H-pyran-2-one]	< 10	< 10	11.7	29.5	56.8	60.6	–	–	–	–	–	–	–	–	–
CCCC1(CCc2ccccc2)CC(O)=C(/C(=C/c2ccccc2)c2ccccc2)C(=O)O1 (stereo not shown) [Example 173, 3-(1,2-Diphenylethenyl)-5,6-dihydro-4-hydroxy-6-(2-phenylethyl)-6-propyl-, (E)-2H-pyran-2-one]	< 10	< 10	–	< 10	39.2	58.8	–	–	–	–	–	–	–	–	–
C=CC(C1=C(O)CC(CCC)(CCc2ccccc2)OC1=O)c1ccccc1 (stereo not shown) [Example 174, 5,6-Dihydro-4-hydroxy-6-(2-phenylethyl)-3-(1-phenyl-2-propenyl)-6-propyl-2H-pyran-2-one]	23.5	52.8	81.8	102	110	106	16	–	–	–	–	–	–	–	–
CCCC1(CCc2ccccc2)CC(O)=C(C(CC)c2ccccc2)C(=O)O1 (stereo not shown) [Example 175, 5,6-Dihydro-4-hydroxy-6-(2-phenylethyl)-3-(1-phenylpropyl)-6-propyl-2H-pyran-2-one]	–	–	–	–	–	–	–	–	19.7	46.7	78.8	99.3	107	105	35
CCCC1(Cc2ccccc2)CC(O)=C(C(C=Cc2ccccc2)c2ccccc2)C(=O)O1 (stereo not shown) [Example 176, 3-(1,3-Diphenyl-2-propenyl)-5,6-dihydro-4-hydroxy-6-(phenylmethyl)-6-propyl-2H-pyran-2-one]	< 10	< 10	28.9	62.3	88.7	101	–	–	–	–	–	–	–	–	–
CCCC1(Cc2ccccc2)CC(O)=C(C(CCc2ccccc2)c2ccccc2)C(=O)O1 (stereo not shown) [Example 177, 3-(1,3-Diphenylpropyl)-5,6-dihydro-4-hydroxy-6-(phenylmethyl)-6-propyl-2H-pyran-2-one]	< 10	19.7	48.2	74.2	89.3	95	–	–	–	–	–	–	–	–	–
CCC(Cc1ccccc1)c1cc(O)c(C(c2cccc(NS(=O)(=O)c3ccccc3)c2)C2CC2)c(=O)o1 (stereo not drawn) [Example 178, 3-(α-Cyclopropyl-meta-(phenylsulfonylamino)benzyl)-6-(α-ethylphenethyl)-4-hydroxy-2H-pyran-2-one]	21.6	61.9	83.1	95.5	104	107	17.4	–	–	–	–	–	–	–	–
CCCS(=O)(=O)Nc1cccc(C(c2c(O)cc(C(CC)Cc3ccccc3)oc2=O)C2CC2)c1 (stereo not drawn) [Example 179, 3-(α-Cyclopropyl-meta-(propylsulfonylamino)benzyl)-6-(α-etylphenethyl)-4-hydroxy-2H-pyran-2-one]	23.7	61.9	77.9	94.4	95.1	102	40	–	–	–	–	–	–	–	–
CCC(Cc1ccccc1)c1cc(O)c(C(c2cccc(NS(=O)(=O)/C=C/c3ccccc3)c2)C2CC2)c(=O)o1 (stereo not drawn) [Example 180, 3-(α-Cyclopropyl-meta-((E)-2-phenylethenylsulfonylamino)benzyl)-6-(α-ethylphenethyl)-4-hydroxy-2H-pyran-2-one]	32	55.9	80.5	91.9	99.5	98	23.3	–	–	–	–	–	–	–	–
